Key:
[1] = biological target: full-length RORγt in Jurkat cells (Homo sapiens (Human), UniProt P51449); test: RORγt 5×RORE Assay in Jurkat Cells (Assay 2); assay type: cell-based; settings: 5×RORE Nanoluc luciferase reporter
[2] = biological target: recombinant RORγ Ligand Binding Domain (LBD) protein (Homo sapiens (Human), UniProt P51449); test: Radio-Ligand RORγ Binding Assay (Assay 1); settings: competition with 25-hydroxy [26,27-3H]-cholesterol, SPA
Procedure, shortened: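 His-GST-fused RORγ ligand-binding domain (24 nM solution) competed between compounds and tritiated 25-hydroxycholesterol (8.6 nM solution), read by SPA after brief rt incubations in pH 7.4 HEPES/glycerol/detergent buffer. Four-parameter curve fitting gave IC50 at inflection, converted to Ki using radioligand concentration and KD.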

full-length RORγt in Jurkat cells, sequence (P51449 other isoform, or with tags, fused parts or gaps): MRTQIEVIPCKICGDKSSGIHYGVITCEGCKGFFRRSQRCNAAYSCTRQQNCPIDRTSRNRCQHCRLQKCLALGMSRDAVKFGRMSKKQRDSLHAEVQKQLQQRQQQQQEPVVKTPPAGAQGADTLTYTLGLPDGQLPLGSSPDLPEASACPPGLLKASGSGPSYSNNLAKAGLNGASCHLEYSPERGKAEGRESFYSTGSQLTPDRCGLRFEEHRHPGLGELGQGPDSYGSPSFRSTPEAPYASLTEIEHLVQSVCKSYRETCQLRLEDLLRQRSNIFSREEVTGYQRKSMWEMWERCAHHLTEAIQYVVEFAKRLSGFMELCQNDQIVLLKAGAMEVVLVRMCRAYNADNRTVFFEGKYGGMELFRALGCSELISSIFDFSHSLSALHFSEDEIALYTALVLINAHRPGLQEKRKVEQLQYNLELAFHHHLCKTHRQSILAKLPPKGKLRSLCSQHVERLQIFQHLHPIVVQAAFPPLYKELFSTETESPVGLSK
recombinant RORγ Ligand Binding Domain (LBD) protein, sequence (P51449 269-508): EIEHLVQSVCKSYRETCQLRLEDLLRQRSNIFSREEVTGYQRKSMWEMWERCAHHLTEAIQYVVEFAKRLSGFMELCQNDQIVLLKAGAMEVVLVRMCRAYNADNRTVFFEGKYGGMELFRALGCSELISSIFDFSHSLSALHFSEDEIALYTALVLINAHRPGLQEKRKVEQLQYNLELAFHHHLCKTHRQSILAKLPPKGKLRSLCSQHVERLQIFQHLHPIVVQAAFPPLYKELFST

Row | IC50 [1] [nM] | Ki [2] [nM] | Compound
1 | < 100 | < 100 | N#Cc1ccc([C@H](CO)NC(=O)c2ccc3c(c2)nc(C(F)(F)F)n3Cc2cccc3c2OC(F)(F)O3)cc1 [I-122, (R)-N-(1-(4-cyanophenyl)-2-hydroxyethyl)-1-((2,2-difluorobenzo[d][1,3]dioxol-4-yl)methyl)-2-(trifluoromethyl)-1H-benzo[d]imidazole-5-carboxamide]
2 | < 100 | < 100 | CCS(=O)(=O)c1ccc([C@H](CO)NC(=O)c2ccc3c(c2)nc(C(F)(F)F)n3Cc2cccc3c2OC(F)(F)O3)c(F)c1 [I-123, (R)-1-((2,2-difluorobenzo[d][1,3]dioxol-4-yl)methyl)-N-(1-(4-(ethylsulfonyl)-2-fluorophenyl)-2-hydroxyethyl)-2-(trifluoromethyl)-1H-benzo[d]imidazole-5-carboxamide]
3 | > 1000 | < 100 | COc1cc(Cn2c(C(F)(F)F)nc3cc(C(=O)NCc4ccc(S(=O)(=O)CCO)cc4)ccc32)cc(OC)c1 [I-124, 1-(3,5-dimethoxybenzyl)-N-(4-((2-hydroxyethyl)sulfonyl)benzyl)-2-(trifluoromethyl)-1H-benzo[d]imidazole-5-carboxamide]
4 | > 1000 | < 100 | CCc1nc2cc(C(=O)NCc3ccc(S(=O)(=O)CC)cc3)ccc2n1[C@@H](C)c1cccc2c1OC(F)(F)O2 [I-125.1, (S)-1-(1-(2,2-difluorobenzo[d][1,3]dioxol-4-yl)ethyl)-2-ethyl-N-(4-(ethylsulfonyl)benzyl)-1H-benzo[d]imidazole-5-carboxamide]
5 | < 100 | < 100 | CCc1nc2cc(C(=O)NCc3ccc(S(=O)(=O)CC)cc3)ccc2n1[C@H](C)c1cccc2c1OC(F)(F)O2 [I-125.2, (R)-1-(1-(2,2-difluorobenzo[d][1,3]dioxol-4-yl)ethyl)-2-ethyl-N-(4-(ethylsulfonyl)benzyl)-1H-benzo[d]imidazole-5-carboxamide]
6 | < 100 | < 100 | CCS(=O)(=O)c1ccc(CNC(=O)c2ccc3c(c2)nc(C(F)(F)F)n3Cc2cccc3c2OC(F)(F)O3)c(O)c1 [I-126, 1-((2,2-difluorobenzo[d][1,3]dioxol-4-yl)methyl)-N-(4-(ethylsulfonyl)-2-hydroxybenzyl)-2-(trifluoromethyl)-1H-benzo[d]imidazole-5-carboxamide]
7 | < 100 | < 100 | COC(=O)CS(=O)(=O)N1CCC(CNC(=O)c2ccc3c(c2)nc(C(F)(F)F)n3Cc2cccc3[nH]ncc23)CC1 [I-127, methyl 2-((4-((1-((1H-indazol-4-yl)methyl)-2-(trifluoromethyl)-1H-benzo[d]imidazole-5-carboxamido)methyl)piperidin-1-yl)sulfonyl)acetate]
8 | > 1000 | < 100 | CCS(=O)(=O)c1ccc(CNC(=O)c2ccc3c(c2)nc(C(F)(F)F)n3Cc2cc(OC)cc(OC)c2)nc1 [I-128, 1-(3,5-dimethoxybenzyl)-N-((5-(ethylsulfonyl)pyridin-2-yl)methyl)-2-(trifluoromethyl)-1H-benzo[d]imidazole-5-carboxamide]
9 | < 100 | < 100 | CCS(=O)(=O)c1ccc([C@H](CO)NC(=O)c2ccc3c(c2)nc(C(F)F)n3Cc2cccc3c2OC(F)(F)O3)nc1 [I-131.1, (R)-1-((2,2-difluorobenzo[d][1,3]dioxol-4-yl)methyl)-2-(difluoromethyl)-N-(1-(5-(ethylsulfonyl)pyridin-2-yl)-2-hydroxyethyl)-1H-benzo[d]imidazole-5-carboxamide]
10 | 100 to 1000 | < 100 | CCS(=O)(=O)c1ccc([C@@H](CO)NC(=O)c2ccc3c(c2)nc(C(F)F)n3Cc2cccc3c2OC(F)(F)O3)nc1 [I-131.2, (S)-1-((2,2-difluorobenzo[d][1,3]dioxol-4-yl)methyl)-2-(difluoromethyl)-N-(1-(5-(ethylsulfonyl)pyridin-2-yl)-2-hydroxyethyl)-1H-benzo[d]imidazole-5-carboxamide]
11 | < 100 | < 100 | CCS(=O)(=O)c1ccc([C@H](CO)NC(=O)c2ccc3c(c2)nc(C2CCC2)n3Cc2cccc3c2OC(F)(F)O3)nc1 [I-132.1, (R)-2-cyclobutyl-1-((2,2-difluorobenzo[d][1,3]dioxol-4-yl)methyl)-N-(1-(5-(ethylsulfonyl)pyridin-2-yl)-2-hydroxyethyl)-1H-benzo[d]imidazole-5-carboxamide]
12 | < 100 | < 100 | CCS(=O)(=O)c1ccc([C@@H](CO)NC(=O)c2ccc3c(c2)nc(C2CCC2)n3Cc2cccc3c2OC(F)(F)O3)nc1 [I-132.2, (S)-2-cyclobutyl-1-((2,2-difluorobenzo[d][1,3]dioxol-4-yl)methyl)-N-(1-(5-(ethylsulfonyl)pyridin-2-yl)-2-hydroxyethyl)-1H-benzo[d]imidazole-5-carboxamide]
13 | < 100 | < 100 | CCS(=O)(=O)c1ccc([C@H](CO)NC(=O)c2ccc3c(c2)nc(C2CC2)n3Cc2cccc3c2OC(F)(F)O3)nc1 [I-133.1, (R)-2-cyclopropyl-1-((2,2-difluorobenzo[d][1,3]dioxol-4-yl)methyl)-N-(1-(5-(ethylsulfonyl)pyridin-2-yl)-2-hydroxyethyl)-1H-benzo[d]imidazole-5-carboxamide]
14 | < 100 | < 100 | CCS(=O)(=O)c1ccc([C@H](CO)NC(=O)c2ccc3c(c2)nc(C2(F)CC2)n3Cc2cccc3c2OC(F)(F)O3)nc1 [I-134.1, (R)-1-((2,2-difluorobenzo[d][1,3]dioxol-4-yl)methyl)-N-(1-(5-(ethylsulfonyl)pyridin-2-yl)-2-hydroxyethyl)-2-(1-fluorocyclopropyl)-1H-benzo[d]imidazole-5-carboxamide]
15 | < 100 | < 100 | CCS(=O)(=O)c1ccc([C@@H](CO)NC(=O)c2ccc3c(c2)nc(C2(F)CC2)n3Cc2cccc3c2OC(F)(F)O3)nc1 [I-134.2, (S)-1-((2,2-difluorobenzo[d][1,3]dioxol-4-yl)methyl)-N-(1-(5-(ethylsulfonyl)pyridin-2-yl)-2-hydroxyethyl)-2-(1-fluorocyclopropyl)-1H-benzo[d]imidazole-5-carboxamide]
16 | < 100 | < 100 | CCS(=O)(=O)c1ccc(CNC(=O)c2ccc3c(c2)nc(C(F)(F)F)n3Cc2cccc(OC)c2F)cc1 [I-136, N-(4-(ethylsulfonyl)benzyl)-1-(2-fluoro-3-methoxybenzyl)-2-(trifluoromethyl)-1H-benzo[d]imidazole-5-carboxamide]

Row | Compound | IC50 [1] [nM] | Ki [2] [nM]
17 | CCS(=O)(=O)c1ccc([C@H](CO)NC(=O)c2ccc3c(c2)nc(C(F)(F)F)n3Cc2cccc3c2OC(F)(F)O3)nc1 [I-130.1, (R)-1-((2,2-difluorobenzo[d][1,3]dioxol-4-yl)methyl)-N-(1-(5-(ethylsulfonyl)pyridin-2-yl)-2-hydroxyethyl)-2-(trifluoromethyl)-1H-benzo[d]imidazole-5-carboxamide] | < 100 | < 100
18 | CCS(=O)(=O)c1ccc([C@@H](CO)NC(=O)c2ccc3c(c2)nc(C(F)(F)F)n3Cc2cccc3c2OC(F)(F)O3)nc1 [I-130.2, (S)-1-((2,2-difluorobenzo[d][1,3]dioxol-4-yl)methyl)-N-(1-(5-(ethylsulfonyl)pyridin-2-yl)-2-hydroxyethyl)-2-(trifluoromethyl)-1H-benzo[d]imidazole-5-carboxamide] | < 100 | < 100

Source: patent US10829481B2, “Benzimidazole derivatives as modulators of ROR-gamma” (Vitae Pharmaceuticals, LLC, priority 2016, dated 2020)
